# Test results reported in the supplement of paper PMC11061612.
# Tests used:
# Experiment in all cases: Bliss excess, mean over the matrix (fraction); higher = more synergy
# AGS (Gastric Carcinoma) = system: AGS (Gastric Carcinoma)
# Outline: (§1)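 After 24 hours at 37°C and 5% CO2 in 1536-well plates, cells in DMEM/F12 or RPMI plus 10% FBS received two-drug dose matrices for 72 hours. Viability came from CellTiter-Glo 2.0 luminescence and was scaled as inhibition, anchored at 0 by vehicle wells and at 1 by blank wells. Combination Emax is taken as the second-highest inhibition in the matrix, and Bliss excess as the observed combination effect less EA + EB − EA·EB, with EA and EB the single-agent effects.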
# [1] = system: B-CPAP (Thyroid Gland Carcinoma)
# Outline: as §1
# [2] = system: CCRF-CEM (T-Lymphoblastic Leukemia)
# Outline: as §1
# [3] = system: COLO-205 (Colorectal Carcinoma)
# Outline: as §1
# [4] = system: CaR-1 (Colorectal Carcinoma)
# Outline: as §1
# [5] = system: Calu-3 (Lung Adenocarcinoma)
# Outline: as §1
# [6] = system: Daoy (Other Solid Carcinomas)
# Outline: as §1
# [7] = system: EC-GI-10 (Esophageal Squamous Cell Carcinoma)
# Outline: as §1
# [8] = system: HCC-78 (Lung Adenocarcinoma)
# Outline: as §1
# [9] = system: HO-1-N-1 (Oral Cavity Carcinoma)
# Outline: as §1
# HOS (Osteosarcoma) = system: HOS (Osteosarcoma)
# Outline: as §1
# [10] = system: HT-1376 (Bladder Carcinoma)
# Outline: as §1
# [11] = system: KP-1N (Pancreatic Carcinoma)
# Outline: as §1
# [12] = system: KYSE-520 (Esophageal Squamous Cell Carcinoma)
# Outline: as §1
# [13] = system: LNCaP-Clone-FGC (Prostate Carcinoma)
# Outline: as §1
# [14] = system: MFE-296 (Endometrial Carcinoma)
# Outline: as §1
# [15] = system: Ramos-2G6-4C10 (Burkitt's Lymphoma)
# Outline: as §1
# [16] = system: SNU-5 (Gastric Carcinoma)
# Outline: as §1
# [17] = system: TCCSUP (Bladder Carcinoma)
# Outline: as §1
# [18] = system: TE-9 (Esophageal Squamous Cell Carcinoma)
# Outline: as §1
SMILES,Bliss excess (AGS (Gastric Carcinoma)),Bliss excess [1],Bliss excess [2],Bliss excess [3],Bliss excess [4],Bliss excess [5],Bliss excess [6],Bliss excess [7],Bliss excess [8],Bliss excess [9],Bliss excess (HOS (Osteosarcoma)),Bliss excess [10],Bliss excess [11],Bliss excess [12],Bliss excess [13],Bliss excess [14],Bliss excess [15],Bliss excess [16],Bliss excess [17],Bliss excess [18]
"CN(CCO)CC[C@H](CSc1ccccc1)Nc1ccc(S(=O)(=O)NC(=O)c2ccc(N3CCC([C@@H](O)c4ccccc4-c4ccc(Cl)cc4)CC3)cc2)cc1S(=O)(=O)C(F)(F)F [AZD4320] + C=CCn1c(=O)c2cnc(Nc3ccc(N4CCN(C)CC4)cc3)nc2n1-c1cccc(C(C)(C)O)n1 [AZD1775] (first compound max 1 µM, partner max 1 µM)",0.0191,0.0808,0.0065,0.0243,-0.0375,0.014,-0.0261,-0.0597,-0.0072,-0.0023,0.0337,-0.0588,-0.0325,-0.0172,-0.0222,-0.0075,0.0808,0.0426,0.0373,0.0368
"CN(CCO)CC[C@H](CSc1ccccc1)Nc1ccc(S(=O)(=O)NC(=O)c2ccc(N3CCC([C@@H](O)c4ccccc4-c4ccc(Cl)cc4)CC3)cc2)cc1S(=O)(=O)C(F)(F)F [AZD4320] + CCN(CCO)CCCOc1ccc2c(Nc3cc(CC(=O)Nc4cccc(F)c4)[nH]n3)ncnc2c1 [AZD2811] (first compound max 1 µM, 7x7, partner max 1 µM)",0.192,0.0126,-0.0228,-0.0154,-0.0753,-0.0142,0.0245,0.0532,-0.0361,-0.0255,-0.0288,0.026,-0.0317,-0.0505,-0.0105,-0.0109,0.18,-0.0115,-0.0194,0.03
"CN(CCO)CC[C@H](CSc1ccccc1)Nc1ccc(S(=O)(=O)NC(=O)c2ccc(N3CCC([C@@H](O)c4ccccc4-c4ccc(Cl)cc4)CC3)cc2)cc1S(=O)(=O)C(F)(F)F [AZD4320] + CN(C)CCCOc1ccc(-c2ccc3ncc4c(c3c2)n(C2CCOCC2)c(=O)n4C)cn1 [AZD0156] (first compound max 1 µM, 7x7, partner max 1 µM)",-0.0561,-0.0065,0.023,-0.054,-0.0727,-0.0153,0.0118,-0.0333,-0.033,-0.0011,-0.0317,-0.03,-0.0481,-0.051,-0.089,-0.0346,0.026,0.0286,-0.0227,-0.0101
"CN(CCO)CC[C@H](CSc1ccccc1)Nc1ccc(S(=O)(=O)NC(=O)c2ccc(N3CCC([C@@H](O)c4ccccc4-c4ccc(Cl)cc4)CC3)cc2)cc1S(=O)(=O)C(F)(F)F [AZD4320] + C[C@@H]1COCCN1C2=NC(=NC(=C2)C3(CC3)[S@](=N)(=O)C)C4=C5C=CNC5=NC=C4 [AZD6738] (first compound max 1 µM, 7x7, partner max 10 µM)",-0.0162,-0.0422,0.0394,-0.0575,0.0178,-0.006,0.0178,-0.0341,-0.0564,0.026,0.0111,0.0078,-0.0135,-0.0026,-0.0328,0.0178,-0.0342,0.0061,0.009,0.0198
"CN(CCO)CC[C@H](CSc1ccccc1)Nc1ccc(S(=O)(=O)NC(=O)c2ccc(N3CCC([C@@H](O)c4ccccc4-c4ccc(Cl)cc4)CC3)cc2)cc1S(=O)(=O)C(F)(F)F [AZD4320] + C[C@@H](Nc1cc(F)cc(F)c1)c1cc(C(=O)N(C)C)cc2c(=O)cc(N3CCOCC3)oc12 [AZD8186] (first compound max 1 µM, 7x7, partner max 3 µM)",0.018,0.0064,0.0013,-0.0302,-0.0193,0.002,-0.0261,0.0191,0.003,0.0421,0.0607,-0.0224,0.0059,-0.0712,-0.0005,0.0075,0.175,0.0726,-0.0348,0.0165
"CN(CCO)CC[C@H](CSc1ccccc1)Nc1ccc(S(=O)(=O)NC(=O)c2ccc(N3CCC([C@@H](O)c4ccccc4-c4ccc(Cl)cc4)CC3)cc2)cc1S(=O)(=O)C(F)(F)F [AZD4320] + Cc1cc2ncnn2cc1Nc1ncc2c(n1)n(C1CCOCC1)c(=O)n2C [AZD7648] (first compound max 1 µM, 7x7, partner max 10 µM)",-0.0298,-0.0275,0.0282,-0.0132,-0.04,-0.0547,-0.042,-0.0397,-0.0227,-0.0407,-0.0225,-0.17,-0.0588,-0.0365,-0.0622,-0.0185,0.0379,-0.0151,-0.0325,-0.016
